Holding throughout (type): cell-based, human
In assay [1] the test system is LC3. Kind of assay: Autophagy activity in cultured cells by immunoblotting, treatment time (Experimental Example 3). As to conditions: HeLa cells; 5 μM for 1, 3, 6, 12, 24, 48 hours or 10 μM for 24 hours; immunoblot, FIG. 4. The protocol: In order to investigate the autophagy activity efficacy by the compounds (Examples 1-25), immunoblotting was performed in the same manner as in Experimental Example 2 using LC3 as a marker. As for the difference, in order to evaluate the treatment time required for activation and the activity retention time, 5 μM of the representative compounds selected among the present compounds (Example 5 (YTK-1005), Example 6 (YTK-1205), Example 7 (YTK-1305), Example 2 (YTK-2205), Example 3 (YTK-3305), Example 14 (YTK-1108), Example 8 (YTK-105), Example 9 (YTK-205)) were treated for 1, 3, 6, 12, 24, 48 hours. On the other hand, 10 μM of the representative compounds selected among the present compounds (Example 10 (YT 5-1), Example 11 (YT 5-2), Example 16 (YT 8-8), Example 15 (YT 8-7), Example 17 (YTK-107), Example 18 (YTK-207), Example 20 (ATB10041), Example 21 (ATB10042), Example 22 (ATB10043), Example 23 (ATB10044), Example 24 (ATB10045), Example 25 (ATB10046)) were treated for 24 hours.
For orientation: A western blot detects proteins with antibodies after separation by electrophoresis.

Assay [2] relates to LC3. Kind of assay: Autophagy activity in cultured cells by immunoblotting, concentration series (Experimental Example 2). As to conditions: HeLa cells; 1, 2, 5, 10 and 20 μM, 24 hours; immunoblot, FIG. 3. The protocol: In order to evaluate the autophagy activity efficacy by the compounds (Examples 1-25), HeLa cell line, which is a cell line derived from a cervical cancer patient, was cultured using a DMEM medium containing 10% FBS and 1% streptomycin/penicillin in an incubator with 5% carbon dioxide. As the representative compounds among the present compounds, the compounds of Examples 1, 2, 3, 5, 6, 7, 8, 9, 12 and 13 (Example 5 (YTK-1005), Example 1 (YTK-1105), Example 6 (YTK-1205), Example 7 (YTK-1305), Example 2 (YTK-2205), Example 3 (YTK-3305), Example 8 (YTK-105), Example 9 (YTK-205), Example 14 (YTK-1108), Example 12 (YT 5-7), Example 13 (YT 5-8)), Example 20 (ATB10041), Example 21 (ATB10042), Example 22 (ATB10043), Example 23 (ATB10044), Example 24 (ATB10045), and Example 25 (ATB10046)) were selected. In order to measure autophagy activity according to the treatment with these selected representative compounds, the respective cells were dispensed into 6 well plates. Additional cultures were performed for 24 hours so that the cells were completely attached to the surface of the plate. To find the concentration at which the respective compounds could increase the phenomenon of autophagy, the test compounds were diluted at 1, 2, 5, 10 and 20 μM and treated. After treatment with the respective compounds, the cells were cultured again in a cell incubator for 24 hours, and then the cells were collected. To extract proteins from the collected cells, 100 ul of lysis buffer (20 mM Tris (pH 7.4), 150 mM NaCl, 1% Triton X-100, 2 mM NaF, 2 mM EDTA, 2 mM beta-glycerophosphate, 5 mM sodium orthovanadate, 1 mM PMSF, leupeptin, aprotinin) was injected into each sample, and cells were lysed. Based on the measured total protein concentration, a sample buffer was added to each sample and allowed to react at 100° C. for 5 minutes. 5 ul was taken from the samples after the reaction, and dispensed into each well of acrylamide gel, and then immunoblotting was performed.

The subject of assay [3] is p62 and LC3. As to the kind of experiment: Autophagy activity by immunofluorescence staining and confocal microscopy (Experimental Example 5). As to conditions: HeLa cells, 5 uM, 24 hours, FIG. 6. The protocol:
In order to confirm the p62 protein activity and the activity level of autophagy phenomenon by the compounds (Examples 1-25), immunofluorescence staining was performed using p62 and LC3 as markers. In order to confirm the p62 activity and the activity level of autophagy phenomenon by new p62 ligands and isomers thereof in cultured cells, HeLa cell line, which is a cell line derived from cervical cancer patient, was treated with the novel p62 ligand compounds (YTK-1205, YTK-1305, YTK-2205, YTK-3305, YTK-105, YTK-205, YT 5-1, YT 9-1, YT 5-2, YT 9-2, YT 8-2, YT 8-1, YTK-107, YTK-207) and cultured. Thereafter, as markers of the autophagy phenomenon, the expression level and location of LC3 puncta and the local co-existence with p62 puncta were observed.
For immunofluorescence staining, a cover glass was placed on a 24-well plate, cells were dispensed, cultured for 24 hours, and then treated with 5 uM of the novel p62 ligands according to the present invention. For the action of the compounds, additional cultures were performed for 24 hours, and then the medium was removed. Cells were fixed using formaldehyde at room temperature. In order to prevent non-specific staining, the cells were allowed to react with a blocking solution at room temperature for 1 hour, and then treated with LC3 antibody diluted at a certain ratio using the blocking solution, and allowed to reacted at room temperature for 1 hour. The antibody-treated cells were washed three times with PBS, and goat-derived secondary antibody was diluted at a certain ratio using the blocking solution, and then allowed to react at room temperature for 30 minutes. The cells were washed again with PBS three times, and for intracellular nuclear staining, the expression level, intracellular puncta formation and intracellular coexistence level of p62 and LC3 were observed through a confocal microscopy after DAPI staining.

The test system of assay [4] is p62 and LC3. Kind of assay: Autophagy activity of control compounds by immunofluorescence staining and confocal microscopy (Experimental Example 6). The conditions noted are these: different concentrations, FIG. 7. The protocol:
In order to confirm p62 protein activity and the activity level of autophagy phenomenon of control compounds (YOK-A-1104, YOK-G-1104, YTK-1005, YTK-1105-1), immunofluorescence staining was performed in the same manner as in Experimental Example 4 by using p62 and LC3 as markers. YOK-A-1104 and YOK-G-1104 are compounds having the following structures.
The compounds were treated at different concentrations, and intracellular puncta of p62 or LC3, that is, the degree to which autophagosome was formed and p62 was delivered was observed by a confocal microscopy.

Counter-ions that a name gives are not always drawn.

With `OCCNCc1cccc(OCc2ccccc2)c1` [YTK-105, 2-((3-(benzyloxy)benzyl)amino)ethan-1-ol], the “autophagy activity (level of LC3)” value in the assay with LC3 [1] and with LC3 [2] was “increasing the autophagy activity” throughout. The “p62 activation and oligomerization, delivery to autophagosome, autophagy activity (p62 and LC3 puncta, local coexistence)” value in the assay on p62 and LC3 [3] was “allow the activation and oligomerization of p62 proteins, and then show the efficacy of delivering them to autophagosome and simultaneously increasing autophagy activity”.
For the compound `OCCNCc1cccc(OCCc2ccccc2)c1` [YTK-205, 2-((3-(phenethoxy)benzyl)amino)ethan-1-ol], the “autophagy activity (level of LC3)” value in the assay on LC3 [1] and with LC3 [2] was “increasing the autophagy activity” throughout. Also, the “p62 activation and oligomerization, delivery to autophagosome, autophagy activity (p62 and LC3 puncta, local coexistence)” value in the assay on p62 and LC3 [3] is “allow the activation and oligomerization of p62 proteins, and then show the efficacy of delivering them to autophagosome and simultaneously increasing autophagy activity”.
Take `OCCNCc1ccc(OCc2ccccc2)c(O)c1` [YTK-HCl-1005, 2-(benzyloxy)-5-(((2-hydroxyethyl)amino)methyl)phenol]: the “autophagy activity (level of LC3)” value in the assay on LC3 [1] and with LC3 [2] was “increasing the autophagy activity” each time. The “p62 activation and oligomerization, delivery to autophagosome, autophagy activity (p62 and LC3 puncta) of control compounds” value with p62 and LC3 [4] was “allow the activation and oligomerization of p62 proteins and then show the efficacy of delivering them to autophagosome and simultaneously increasing autophagy activity”.
Take `CCOC(=O)C(C)NC[C@@H](O)COc1ccc(OCc2ccccc2)c(OCc2ccccc2)c1` (stereo partly drawn) [YOK ALA-1104, Ethyl (R)-(3-(3,4-bis(benzyloxy)phenoxy)-2-hydroxypropyl)alanineate]: the “p62 activation and oligomerization, delivery to autophagosome, autophagy activity (p62 and LC3 puncta) of control compounds” value with p62 and LC3 [4] is “allow the activation and oligomerization of p62 proteins and then show the efficacy of delivering them to autophagosome and simultaneously increasing autophagy activity”.
With `OCCCCc1ccc(OCc2ccccc2)c(OCc2ccccc2)c1` [YTK HCl-1105-1, 4-(3,4-bis(benzyloxy)phenyl)butan-1-ol], the “p62 activation and oligomerization, delivery to autophagosome, autophagy activity (p62 and LC3 puncta) of control compounds” value in the assay with p62 and LC3 [4] was “allow the activation and oligomerization of p62 proteins and then show the efficacy of delivering them to autophagosome and simultaneously increasing autophagy activity”.
As to `COC(=O)CNC[C@@H](O)COc1ccc(OCc2ccccc2)c(OCc2ccccc2)c1` [YOK R-Gly-1104, Methyl (R)-(3-(3,4-bis(benzyloxy)phenoxy)-2-hydroxypropyl)glycineate], in the assay with p62 and LC3 [4], the “p62 activation and oligomerization, delivery to autophagosome, autophagy activity (p62 and LC3 puncta) of control compounds” value was “allow the activation and oligomerization of p62 proteins and then show the efficacy of delivering them to autophagosome and simultaneously increasing autophagy activity”.

For the origin of these results see patent publication US12427346B2, “P62 ligand compound, and composition for preventing, ameliorating or treating proteinopathies comprising the same” (AUTOTAC INC., priority 2018, dated 2025).
